US3932664A, “Substituted phenoxyalkyl quaternary ammonium compounds as antiarrhythemic agents” (priority 1974, dated 1976)

What was measured:
[1] = system: ouabain-induced ventricular tachycardia in dogs; assay: conversion of ouabain-induced ventricular tachycardia to normal sinus rhythm in anesthetized dogs; assay type: in vivo, dog; details: intravenous; for mean duration of sinus rhythm: group of three dogs
From the text: Ventricular tachycardia is produced in dogs in a method similar to the method of Lucchesi and Hardman (J. Pharmacol. Exptl. Therap., 132, 372, 1961) by the administration of ouabain. In such operations, a dog is anesthetized by the intravenous administration of pentobarbital sodium at a dosage rate of 30 milligrams per kilogram. A femoral artery is cannulated with polyethylene tubing for measurements of blood pressure. A femoral vein is similarly cannulated for administration of ouabain and administration of the test compound. Hypodermic needle electrodes are employed for recording electrocardiograms. In such operations, ouabain is administered intravenously by infusion at a constant rate via the cannulated femoral vein. The infusion rate is 35 micrograms of ouabain per kilogram of animal body weight per hour. Within 1 to 1.5 hours following the start of the infusion, a ventricular tachycardia is seen to develop.
After ventricular tachycardia is observed, a test compound is administered intravenously by administration of varying amounts of a composition comprising 50 milligrams of the test compound as a sterile solution in 10 milliliters of water containing 0.9 percent sodium chloride. Each dose is administered slowly over a period of 15 to 30 seconds. The compound is administered at an initial dosage rate of 0.25 milligram of test compound per kilogram of animal body weight. Blood pressure and electrocardiogram are observed for 5 minutes after administration. When a complete conversion from the arrhythmic condition to normal sinus rhythm is not observed within the 5 minute period, a second dose of 0.50 milligram of the test compound per kilogram is administered by a similar procedure and blood pressure and heartbeat are similarly observed for 5 minutes. When complete conversion of the ventricular tachycardia to normal sinus rhythm is not observed, the dosage is increased two-fold every five minutes until complete conversion is obtained. The animal is then observed and the duration of the period of normal cardiac rhythm produced by administration of the test compound is recorded as the duration of antiarrhythmic activity. The termination of the period of normal activity is marked by the reappearance of ventricular tachycardia or fibrillation as indicated by the electrocardiogram observations. The antiarrhythmic dosage of test compound sufficient to bring about a complete conversion of the cuabain-induced tachycardia, and the duration of the period of normal cardiac activity are set out below.
The procedure of Example 26 is repeated, employing the compound of Example 1, [ 2-(4-amino-2,6-dibromophenoxy)-ethyl]-dimethyl(2-methylallyl)ammoniumchloride, as a test compound. In these operations two groups of three dogs each are administered the test compound intravenously at anti-arrhythmic dosage rates of 1 and 2 milligrams per kilogram after ectopic ventricular rhythms have been established by continuous infusion of cuabain.

[2] = system: multifocal ventricular arrhythmias induced by n-hexane and epinephrine in dogs; assay: protection against multifocal ventricular arrhythmias induced by n-hexane and epinephrine in dogs; assay type: in vivo; details: dog, intravenous
From the text: [2-(4-Amino-2,6-dibromophenoxy)ethyl]dimethyl-(2-methylallyl)ammonium chloride is employed to alleviate multifocal ventricular arrhythmias induced by administration of n-hexane and epinephrine. In these operations, dogs are anesthetized by intravenous administration of 30 milligrams of pentobarbital sodium per kilogram. Transient ventricular arrhythmias are induced by a modification of the method of Garb and Chenowith, J. Pharmacol. Exp. Ther. 94; 12 (1948) in which the heart is sensitized by intratracheal injection of 0.04 milliliter of n-hexane per kilogram, followed in 15 seconds by rapid intravenous administration of 1-epinephrine bitrate at a dosage rate of 10 micrograms per kilogram. Such procedure produces a transient arrhythmia lasting about 10 seconds. Duration of protection by a test compound is evaluated by repeating the n-hexane and epinephrine challenge periodically and monitoring electrocardiogram and arterial blood pressure. […] When the same compound is administered at a dosage rate of 2 milligrams per kilogram, the duration of protection is found to be greater than 2 hours.
In similar operations, dosages of 5 to 10 milligrams per kilogram are found to be required to obtain similar antiarrhythmic effects when the known antiarrhythmic agent, quinidine sulfate, is employed as a test compound.

[3] = system: electrically induced ventricular fibrillation in dogs; assay: threshold for electrically induced ventricular fibrillation in electrically paced dogs; assay type: in vivo, dog; details: intravenous
[4] = system: arrhythmia after experimental coronary artery occlusion in dogs; assay: abnormal complexes after experimental occlusion of the anterior descending coronary artery in dogs; assay type: in vivo; details: dog
Experimental: An experimental occlusion of the anterior descending coronary artery is produced in dogs according to the method of Harris, Circulation 1, 1318 (1950). Following surgery the animals are given a penicillin-streptomycin preparation and allowed to recover for 18-24 hours. The animals are given 3 milligrams per kilogram of morphine sulfate as an analgetic and sedative to allow handling. Electrocardiograms are recorded both before and after administration of [2-([…])ethyl]dimethyl-(2-methylallyl)ammonium chloride to the test animals. The incidence of abnormal complexes (premature ventricular contractions and atrioventricular nodal beats) per minute is recorded as a percentage of total beats per minute. In one such operation the test compound is administered by intravenous infusion at rates of 1, 2, 2 and 2 milligrams per kilogram at intervals of 10 to 15 minutes. […] Following the last infusion of test compound the heartbeat rate is observed to have decreased from a rate of over 160 beats per minute prior to the first infusion to about 90-100 beats per minute. The incidence of ectopic beats at this time has decreased from a pre-treatment level of 100 percent abnormal beats per minute to below 60 percent, reaching zero (100 percent normal beats) within about 10 minutes after the last infusion. The lower heartbeat rate and low incidence of abnormal beats (generally 0 to 20 percent of the total beats per minute are abnormal) is found to persist for 2 hours following the last infusion of test compound, at which time the experiment is terminated.
In similar operations, the same test compound is infused at dosages of 1, 2 and 4 milligrams per kilogram at intervals over a forty minute period. Prior to infusion the incidence of abnormal beats is 100 percent. […] The incidence of abnormal beats is found to remain at zero with occasional brief periods of slight arrhythmia (2-5 percent abnormal beats) for 2.5 hours following the last dosage of the test compound, when recording is terminated.
In a similar operation the [2-([…])ethyl]dimethyl(2-methylallyl)ammonium chloride is administered orally in gelatin capsules. The test compound is administered in multiple dosages of 30, 30 and 50 milligrams per kilogram over a period of 150 minutes. […] Antiarrhythmic effects continue to be observed until the recording is terminated 140 minutes after the last dose of test compound.

[5] = blood and heart levels in rabbits after oral and intravenous administration; assay type: in vivo; details: rabbit
[6] = iv infusion, following the first infusion (1 mg/kg)

C=C(C)C[N+](C)(C)CCOc1c(Br)cc(N)cc1Br.[Cl-] [Example 1, [2-(4-amino-2,6-dibromophenoxy)ethyl]-dimethyl(2-methylallyl)ammonium chloride]
minimal effective dose ([1]; Canis lupus familiaris, iv, dog, dose giving complete conversion of ouabain-induced tachycardia to normal sinus rhythm, read-out: Conversion Dose): 0.5 mg/kg | Duration (period of normal cardiac rhythm) ([1]; dog, at conversion dose 0.5 mg/kg): 15 min | mean duration of sinus rhythm ([1]; 1 mg/kg): 12.7 min | mean duration of sinus rhythm ([1]; 2 mg/kg): 26.5 min | conversion of the arrhythmias to sinus rhythm ([1]; two groups of three dogs, 1 and 2 mg/kg): Complete conversion of the arrhythmias to sinus rhythm is observed in all the dogs | duration of protection ([2]; 2 mg/kg): greater than 2 hours | duration of antiarrhythmic effect ([2]; one mg/kg): about 1 hour | protection against the arrhythmias ([2]; one mg/kg): excellent protection | increase in threshold for electrically induced ventricular fibrillation [3]: substantial increases | time after last infusion to substantially complete conversion to sinus rhythm ([4]; infused 1, 2 and 4 mg/kg over forty minutes): eight | conversion to sinus rhythm ([4]; infused 1, 2 and 4 mg/kg over forty minutes, incidence of abnormal beats 100 percent before): substantially complete conversion to sinus rhythm | time for which incidence of abnormal beats remains at zero (with occasional slight arrhythmia) ([4]; infused 1, 2 and 4 mg/kg, following last dosage, recording then terminated): ≥ 2.5 h | incidence of abnormal beats ([4]; infused 1, 2 and 4 mg/kg, for 2.5 hours following the last dosage): zero | anti-arrhythmic effects on resumption of recording ([4]; infused 1, 2 and 4 mg/kg, recording resumed 215 minutes later): significant anti-arrhythmic effects are still exhibited | abnormal beats during occasional brief periods of slight arrhythmia ([4]; infused 1, 2 and 4 mg/kg, within 2.5 hours following the last dosage): 2-5% | time after last infusion to zero ectopic beats (100 percent normal beats) ([4]; iv 1, 2, 2 and 2 mg/kg): ≤ 10 min | persistence of lower heartbeat rate and low incidence of abnormal beats ([4]; iv 1, 2, 2 and 2 mg/kg, following last infusion, experiment terminated at that time): ≥ 2 h | heartbeat rate ([4]; iv 1, 2, 2 and 2 mg/kg, following last infusion, over 160 beats per minute prior to first infusion, in beats/min): 90-100 | incidence of ectopic beats (percent abnormal beats per minute) ([4]; iv 1, 2, 2 and 2 mg/kg, following last infusion, pre-treatment 100 percent): below 60% | incidence of ectopic beats ([4]; iv 1, 2, 2 and 2 mg/kg, within about 10 minutes after the last infusion): zero | change in percentage of abnormal beats per minute [4, 6]: concomitant decrease | heart beat rate change [4, 6]: marked decrease | antiarrhythmic effects of the second and third doses ([4]; oral 30, 30 and 50 mg/kg): further and more consistent antiarrhythmic effects | time after last dose to periods with less than 10 percent abnormal beats ([4]; oral 30, 30 and 50 mg/kg): about 25 minutes | abnormal beats (periods in electrocardiogram) ([4]; oral 30, 30 and 50 mg/kg, beginning about 25 minutes after last dose, interspersed with occasional arrhythmia): less than 10% | time after last dose over which antiarrhythmic effects continue to be observed ([4]; oral 30, 30 and 50 mg/kg, recording then terminated): ≥ 140 min | time after first dosage to periods of reduced frequency of abnormal heart beats ([4]; oral gelatin capsules, 30, 30 and 50 mg/kg over 150 minutes): 10 min | oral absorption [5]: indicate oral absorption
